Measurements from patent US20060264460A1 (Wyeth, priority 2005, published 2006).

The molecules below were run against T1, human Cot/Tpl2 kinase (Homo sapiens, UniProt P41279) (assay: Tpl2/Cot kinase assay: GST-MEK1 phosphorylation detected by ELISA (DELFIA Eu)). Conditions: 0.4 nM Tpl2, 35 nM GST-MEK1, 50 uM ATP, 1 h at 30° C.
T1 construct: human Cot/Tpl2 kinase construct encoding residues 30-398; 6His (N); made in house; host or cells: Sf9 insect cells, baculovirus system (BD Biosciences)
Format: biochemical
Experimental: Sf9 cells expressing the kinase were lysed in 50 mM NaPhosphate pH=8; 300 mM NaCl; 5 mM imidazole; 0.1 mM EGTA; 25 mM beta-glycerophosphate; 1% TX-100, 1% glycerol; 6 mM beta-mercaptoethanol and protease inhibitors. The lysate was clarified by centrifugation and was loaded onto a Ni-Sepharose column. The column was washed with 50 mM NaPhosphate pH=8; 300 mM NaCl; 15 mM imidazole; 1% glycerol; and 6 mM beta-mercaptoethanol. His-Tpl2 was eluted with 50 mM NaPhosphate pH=8; 300 mM NaCl; 250 mM imidazole; 1% glycerol; and 6 mM beta-mercaptoethanol. The eluted protein was further purified by size exclusion chromatography. Fractions corresponding to monomeric Tpl2 were then used in the assay.
Tpl2/Cot activity was directly assayed using GST-MEK1 as a substrate. GST-MEK1 phosphorylation on serine residues 217 and 221 was detected by ELISA. 0.4 nM Tpl2 was incubated with 35 nM GST-MEK1 in a kinase reaction buffer containing 20 mM MOPS pH=7.2; 50 uM ATP; 20 mM MgCl2; 1 mM DTT; 25 mM β-glycerophosphate; 5 mM EGTA; and 1 mM sodium orthovanadate for 1 h at 30° C. The compounds of the inventions solubilized in 100% DMSO were pre-diluted in assay buffer so that the final concentration of DMSO in the reaction was 1%. The kinase reaction was carried out in 100 ul volume on 96 well plates. The kinase reaction was then stopped with the addition of 100 mM EDTA. […] After a 1 hour incubation at room temperature, the detection plate was washed 4 times with TBST (TBS+0.05% Tween 20) and then incubated for another hour at room temperature with anti phospho-MEK1 antibody (Cell Signaling) 1:1000 in 10 mM MOPS 7.5; 150 mM NaCl; 0.05% Tween 20; 0.1% Gelatin; 0.02% NaN3; and 1% BSA. The detection plate was washed again and incubated for 30 min with DELFIA Europium (Eu) labeled goat anti-rabbit IgG (Perkin-Elmer), 1:4000 in the same buffer used for the primary incubation. After a final wash, Eu detection solution was added to each well and the Eu signal was measured in a Wallac Victor^2 Multilabel Counter. IC50 calculations were performed using the XLfit software package (IDBS, Guildford, UK).

T1 sequence (P41279 30-398): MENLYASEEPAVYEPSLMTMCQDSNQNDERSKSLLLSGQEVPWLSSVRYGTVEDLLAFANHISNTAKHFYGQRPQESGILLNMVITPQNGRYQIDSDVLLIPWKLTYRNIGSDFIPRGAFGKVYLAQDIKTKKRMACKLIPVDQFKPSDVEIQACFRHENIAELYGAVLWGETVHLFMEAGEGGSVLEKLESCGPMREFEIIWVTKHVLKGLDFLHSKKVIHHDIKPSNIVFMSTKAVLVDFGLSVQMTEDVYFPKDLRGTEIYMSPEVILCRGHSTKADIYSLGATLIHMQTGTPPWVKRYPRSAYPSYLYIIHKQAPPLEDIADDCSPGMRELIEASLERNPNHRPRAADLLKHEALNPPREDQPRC

Question: How did the IC50 turn out when `COCC(=O)NCCn1cc(CNc2cc(Br)c3ncc(C#N)c(Nc4ccc(F)c(Cl)c4)c3c2)nn1` [Example 218, N-(2-(4-((8-bromo-4-(3-chloro-4-fluorophenylamino)-3-cyanoquinolin-6-ylamino)methyl)-1H-1,2,3-triazol-1-yl)ethyl)-2-methoxyacetamide] was run?
Answer: The IC50 was 32 nM.

Question: `N#Cc1cnc2ccc(NCc3ccc([N+](=O)[O-])cc3)cc2c1Nc1ccc(F)c(Cl)c1` [Example 17, 4-(3-Chloro-4-fluoro-phenylamino)-6-(4-nitro-benzylamino)-quinoline-3-carbonitrile] was tested. Which IC50 did it give?
Answer: Its IC50 is 190 nM.

Question: With `N#Cc1cnc2c(Br)cc(NCc3cn(-c4ccc(C(=O)O)cc4)nn3)cc2c1Nc1ccc(F)c(Cl)c1` [Example 292, 4-(4-{[8-Bromo-4-(3-chloro-4-fluoro-phenylamino)-3-cyano-quinolin-6-ylamino]-methyl}-[1,2,3]triazol-1-yl)-benzoic acid] as the molecule, how does the IC50 read?
Answer: The IC50 was 3.5 nM.

Question: How did the IC50 turn out when `CN(C)C(=O)c1cc(NCc2cccc(C#N)c2)cc2c(Nc3ccc(F)c(Cl)c3)c(C#N)cnc12` [Example 85, 4-(3-chloro-4-fluorophenylamino)-3-cyano-6-(3-cyanobenzylamino)-N,N-dimethylquinoline-8-carboxamide] was run?
Answer: The IC50 was 670 nM.

Question: Which IC50 does the source give for `N#Cc1cnc2c(Cl)cc(NCCn3ccnn3)cc2c1Nc1ccc(F)c(Cl)c1` [Example 211, 8-chloro-4-[(3-chloro-4-fluorophenyl)amino]-6-{[2-(1H-1,2,3-triazol-1-yl)ethyl]amino}quinoline-3-carbonitrile] here?
Answer: Its IC50 is 350 nM.

Question: For `Cc1ncn(C)c1CNc1ccc2ncc(C#N)c(Nc3ccc(F)c(Cl)c3)c2c1` [Example 133, 4-(3-chloro-4-fluorophenylamino)-6-((1,4-dimethyl-1H-imidazol-5-yl)methylamino)quinoline-3-carbonitrile], which IC50 is on record?
Answer: The IC50 was 200 nM.

Same assay, conditions: Table 2; Tpl2/Cot kinase, GST-MEK1 substrate, 50 uM ATP

Question: How did the IC50 turn out when `CN(C)C(=O)CNc1cc(Cl)c2ncc(C#N)c(Nc3ccc(F)c(Cl)c3)c2c1` [Example 474] was run?
Answer: The IC50 was 1700 nM.

Question: `N#Cc1cnc2ccc(NCc3cccnc3)cc2c1Nc1cccc(Cl)c1` [Example 348] was tested. Which IC50 did it give?
Answer: Its IC50 is 90 nM.

Question: How did the IC50 turn out when `CN1CCCC1CCn1cnc(CNc2cc(Br)c3ncc(C#N)c(Nc4ccc(F)c(Cl)c4)c3c2)c1` (stereo not shown) [Example 548] was run?
Answer: The IC50 was 34 nM.

Question: Which IC50 does the source give for `CC(C)(C)OC(=O)N1CCCN(CCCn2cc(CNc3cc(Cl)c4ncc(C#N)c(Nc5ccc(F)c(Cl)c5)c4c3)nn2)CC1` [Example 590] here?
Answer: The IC50 was 120 nM.

Question: For `N#Cc1cnc2c(Br)cc(NCc3cn(Cc4ccccn4)nn3)cc2c1Nc1ccc(F)c(Cl)c1` [Example 579], which IC50 is on record?
Answer: Its IC50 is 33 nM.

Question: Which IC50 does the source give for `CC(C)(C)OC(=O)N1CCCC(Cn2cc(CNc3cc(Cl)c4ncc(C#N)c(Nc5ccc(F)c(Cl)c5)c4c3)nn2)C1` (stereo not shown) [Example 541] here?
Answer: The IC50 was 250 nM.

Question: `CN1CCN(CCCn2cc(CNc3cc(Cl)c4ncc(C#N)c(Nc5ccc(F)c(Cl)c5)c4c3)nn2)CC1` [Example 627] was tested. Which IC50 did it give?
Answer: Its IC50 is 39 nM.

Same assay, conditions: Tpl2/Cot kinase, GST-MEK1 substrate, 50 uM ATP

Question: How did the IC50 turn out when `N#Cc1cnc2c(Cl)cc(NCC(=O)N3CCCCCC3)cc2c1Nc1ccc(F)c(Cl)c1` [Example 885] was run?
Answer: Its IC50 is 390 nM.

Question: `CS(=O)(=O)CCn1cnc(CNc2cc(Br)c3ncc(C#N)c(Nc4ccc(F)c(Cl)c4)c3c2)c1` [Example 702] was tested. Which IC50 did it give?
Answer: Its IC50 is 43 nM.

Question: `CC(C)(C)OC(=O)N1CCN(CCCn2cc(CNc3cc(Cl)c4ncc(C#N)c(Nc5ccc(F)c(Cl)c5)c4c3)nn2)CC1` [Example 765] was tested. Which IC50 did it give?
Answer: The IC50 was 230 nM.

Question: With `COCCCNC(=O)CNc1cc(Cl)c2ncc(C#N)c(Nc3ccc(F)c(Cl)c3)c2c1` [Example 779] as the molecule, how does the IC50 read?
Answer: Its IC50 is 230 nM.

Question: `N#Cc1cnc2c(Br)cc(NCC(=O)O)cc2c1Nc1ccc(F)c(Cl)c1` [Example 798] was tested. Which IC50 did it give?
Answer: The IC50 was 140 nM.

Same assay, conditions: Tpl2/Cot kinase, GST-MEK1 substrate, 50 uM ATP, 1 h at 30° C.; Table 2

Question: Which IC50 does the source give for `CC(=O)N1CCC(n2cc(CNc3cc(Cl)c4ncc(C#N)c(Nc5ccc(F)c(Cl)c5)c4c3)nn2)CC1` [Example 930] here?
Answer: The IC50 was 3.3 nM.

Question: For `CC(C)(C)CC(=O)N1CCN(CCn2cc(CNc3cc(Cl)c4ncc(C#N)c(Nc5ccc(F)c(Cl)c5)c4c3)nn2)CC1` [Example 960], which IC50 is on record?
Answer: Its IC50 is 130 nM.

Question: With `COC(=O)N1CCC(n2cc(CNc3cc(Cl)c4ncc(C#N)c(Nc5ccc(F)c(Cl)c5)c4c3)nn2)CC1` [Example 980] as the molecule, how does the IC50 read?
Answer: Its IC50 is 24 nM.

Question: For `N#Cc1cnc2c(Cl)cc(NCc3cn(C4CCC(NC5CC5)CC4)nn3)cc2c1Nc1ccc(F)c(Cl)c1` (stereo not shown) [Example 1040], which IC50 is on record?
Answer: Its IC50 is 17 nM.
